# Measured values published in ChEMBL document CHEMBL3580555, “Design, Synthesis, and Biological Evaluation of Novel Imidazo[1,2-a]pyridine Derivatives as Potent c-Met Inhibitors” (ACS Med Chem Lett, 2015).
# The source made the active and inactive calls. The calls are words filed in the database; no cut-off is given here.
# Columns and labels:
# [1] = Antiproliferative activity against human EBC1 cells after 72 hrs; details: EBC-1, 72 h
# Liver microsome [2] = assay: Drug metabolism in Sprague-Dawley rat liver microsomes assessed as 2-Fluoro-4-(8-fluoro-3-(hydroxy(quinolin-6-yl)methyl)imidazo[1,2-a]pyridin-6-yl)-N-methylbenzamide metabolite formation after 60 mins by UPLC/Q-TOF MS/MS analysis; type: ADME; details: 1 h
# Liver microsome [3] = assay: Drug metabolism in beagle dog liver microsomes assessed as 2-Fluoro-4-(8-fluoro-3-(hydroxy(quinolin-6-yl)methyl)imidazo[1,2-a]pyridin-6-yl)-N-methylbenzamide metabolite formation after 60 mins by UPLC/Q-TOF MS/MS analysis; type: ADME, Canis lupus familiaris; details: 1 h
# Liver microsome [4] = assay: Drug metabolism in human liver microsomes assessed as 2-Fluoro-4-(8-fluoro-3-(hydroxy(quinolin-6-yl)methyl)imidazo[1,2-a]pyridin-6-yl)-N-methylbenzamide metabolite formation after 60 mins by UPLC/Q-TOF MS/MS analysis; type: ADME; details: 1 h
# [5] = Drug metabolism in monkey liver microsomes assessed as 2-Fluoro-4-(8-fluoro-3-(hydroxy(quinolin-6-yl)methyl)imidazo[1,2-a]pyridin-6-yl)-N-methylbenzamide metabolite formation after 60 mins by UPLC/Q-TOF MS/MS analysis; type: ADME, Macaca mulatta; details: rhesus monkey, 1 h
# Liver microsome [6] = assay: Drug formation in Sprague-Dawley rat liver microsomes treated with 2-Fluoro-4-(8-fluoro-3-(quinolin-6-ylmethyl)imidazo[1,2-a]pyridin-6-yl)-N-methylbenzamide after 60 mins by UPLC/Q-TOF MS/MS analysis; type: ADME; details: 1 h
# [7] = target: Voltage-gated inwardly rectifying potassium channel KCNH2 (Homo sapiens, UniProt Q12809); assay: Inhibition of human ERG channel
# EBC-1 [8] = assay: Antitumor activity against human EBC1 cells xenografted in po dosed mouse assessed as tumor growth inhibition treated for 3 weeks; type: functional, organism-based
# [9] = Antitumor activity against human EBC1 cells xenografted in mouse assessed as tumor growth inhibition treated at 100 mg/kg, po for 3 weeks; type: functional; details: EBC-1, po, 504 h
# [10] = Antitumor activity against human EBC1 cells xenografted in mouse assessed as tumor growth inhibition treated at 50 mg/kg, po for 3 weeks; type: functional; details: EBC-1, po, 504 h, read-out: INH
# Mus musculus = assay: Toxicity in human EBC1 cells xenografted in mouse assessed as weight losses treated at 50 to 100 mg/kg, po for 3 weeks; type: organism-based; details: in vivo, 504 h
# [11] = Antiproliferative activity against human BGC823 cells after 72 hrs; type: functional, cell-based; details: BGC-823, 72 h
# MGC-803 = assay: Antiproliferative activity against human MGC803 cells after 72 hrs; type: functional, cell-based; details: MGC-803, 72 h
# [12] = Antiproliferative activity against human SPCA1 cells after 72 hrs; type: functional, cell-based; details: SPCA1, 72 h
# [13] = Antiproliferative activity against human SPCA4 cells after 72 hrs; type: functional, cell-based; details: SPC-A4, 72 h
# [14] = Antiproliferative activity against human Calu3 cells after 72 hrs; type: functional, cell-based; details: Calu-3, 72 h
# [15] = Antiproliferative activity against human SGC7901 cells after 72 hrs; type: functional, cell-based; details: SGC-7901, 72 h
# [16] = Antiproliferative activity against human MKN74 cells after 72 hrs; type: functional, cell-based; details: MKN-74, 72 h
# [17] = Antiproliferative activity against human MKN1 cells after 72 hrs; type: functional, cell-based; details: MKN-1, 72 h
# HT-29 = assay: Antiproliferative activity against human HT-29 cells after 72 hrs; type: functional, cell-based; details: HT-29, 72 h
# AGS = assay: Antiproliferative activity against human AGS cells after 72 hrs; type: functional, cell-based
# [18] = Antiproliferative activity against human SNU16 cells after 72 hrs; type: functional, cell-based; details: SNU-16, 72 h
# SNU1 = assay: Antiproliferative activity against human SNU1 cells after 72 hrs; type: functional, cell-based; details: SNU1, 72 h
# A549 = assay: Antiproliferative activity against human A549 cells after 72 hrs; type: functional, cell-based; details: A549, 72 h
# [19] = target: Tyrosine-protein kinase receptor UFO (Homo sapiens, UniProt P30530); assay: Inhibition of Axl (unknown origin) using polu (Glu,Tyr)4:1 substrate after 30 mins incubation by multi-well spectrophotometry
# [20] = target: Tyrosine-protein kinase Mer (Homo sapiens, UniProt Q12866); assay: Inhibition of Mer (unknown origin) using polu (Glu,Tyr)4:1 substrate after 30 mins incubation by multi-well spectrophotometry
# [21] = target: Tyrosine-protein kinase receptor TYRO3 (Homo sapiens, UniProt Q06418); assay: Inhibition of Tyro3 (unknown origin) using polu (Glu,Tyr)4:1 substrate after 30 mins incubation by multi-well spectrophotometry
# [22] = Antiproliferative activity against human MKN45 cells after 72 hrs; type: functional, cell-based; details: MKN-45, 72 h
# [23] = Antiproliferative activity against human SNU5 cells after 72 hrs; type: functional, cell-based; details: SNU-5, 72 h
# BaF3 = assay: Antiproliferative activity against mouse BAF3/TPR-Met cells after 72 hrs; type: functional, cell-based; details: BaF3, 72 h
# EBC-1 [24] = assay: Induction of cell cycle arrest in human EBC1 cells assessed as cell accumulation at G1/S phase at 1 uM after 24 hrs by FACS analysis; type: functional, cell-based
# EBC-1 [25] = assay: Induction of cell cycle arrest in human EBC1 cells assessed as cell accumulation at G1 phase at 1 uM after 24 hrs by FACS analysis (reference value: 52.95%); type: functional
# NCI-H441 [26] = assay: Inhibition of HGF-induced human NCI-H441 cell migration at 500 nM after 24 hrs by spectrophotometry; type: functional, cell-based
# NCI-H441 [27] = assay: Inhibition of HGF-induced human NCI-H441 cell invasion at 500 nM after 24 hrs by spectrophotometry; type: functional, cell-based
# MDCK = assay: Reduction in HGF-induced cell scattering of MDCK cells after 24 hrs by microscopy; type: functional, cell-based; details: Canis lupus familiaris
# [28] = Half life in Sprague-Dawley rat at 10 mg/kg, iv; type: ADME, organism-based; details: in vivo
# [29] = Oral bioavailability in Sprague-Dawley rat at 20 mg/kg; type: ADME, organism-based; details: in vivo
# [30] = Drug metabolism in CD1 mouse liver microsomes assessed as 2-Fluoro-4-(8-fluoro-3-(hydroxy(quinolin-6-yl)methyl)imidazo[1,2-a]pyridin-6-yl)-N-methylbenzamide metabolite formation after 60 mins by UPLC/Q-TOF MS/MS analysis; type: ADME; details: 1 h
# NCI-H520 = assay: Antiproliferative activity against human NCI-H520 cells after 72 hrs; type: functional, cell-based; details: NCI-H520, 72 h
# NCI-H1975 = assay: Antiproliferative activity against human NCI-H1975 cells after 72 hrs; type: functional, cell-based; details: NCI-H1975, 72 h
# NCI-H1650 = assay: Antiproliferative activity against human NCI-H1650 cells after 72 hrs; type: functional, cell-based; details: NCI-H1650, 72 h
# NCI-H1299 = assay: Antiproliferative activity against human NCI-H1299 cells after 72 hrs; type: functional, cell-based; details: NCI-H1299, 72 h
# NCI-H596 = assay: Antiproliferative activity against human NCI-H596 cells after 72 hrs; type: functional, cell-based; details: NCI-H596, 72 h
# NCI-H226 = assay: Antiproliferative activity against human NCI-H226 cells after 72 hrs; type: functional, cell-based; details: NCI-H226, 72 h
# NCI-H292 = assay: Antiproliferative activity against human NCI-H292 cells after 72 hrs; type: functional, cell-based; details: NCI-H292, 72 h
# NCI-H23 = assay: Antiproliferative activity against human NCI-H23 cells after 72 hrs; type: functional, cell-based; details: NCI-H23, 72 h
# NCI-H358 = assay: Antiproliferative activity against human NCI-H358 cells after 72 hrs; type: functional, cell-based; details: NCI-H358, 72 h
# NCI-H661 = assay: Antiproliferative activity against human NCI-H661 cells after 72 hrs; type: functional, cell-based; details: NCI-H661, 72 h
# [31] = target: Hepatocyte growth factor receptor (Homo sapiens) (UniProt P08581); assay: Inhibition of C-Met (unknown origin) using polu (Glu,Tyr)4:1 substrate at 1 uM after 30 mins incubation by multi-well spectrophotometry
# [32] = target: Hepatocyte growth factor receptor (Homo sapiens) (UniProt P08581); assay: Inhibition of C-Met (unknown origin) using polu (Glu,Tyr)4:1 substrate at 100 uM after 30 mins incubation by multi-well spectrophotometry
# Liver = assay: Drug formation in CD1 mouse liver microsomes treated with 2-Fluoro-4-(8-fluoro-3-(quinolin-6-ylmethyl)imidazo[1,2-a]pyridin-6-yl)-N-methylbenzamide after 60 mins by UPLC/Q-TOF MS/MS analysis; type: ADME; details: 1 h
# Liver microsome [33] = assay: Drug formation in human liver microsomes treated with 2-Fluoro-4-(8-fluoro-3-(quinolin-6-ylmethyl)imidazo[1,2-a]pyridin-6-yl)-N-methylbenzamide after 60 mins by UPLC/Q-TOF MS/MS analysis; type: ADME; details: 1 h
# [34] = Drug formation in monkey liver microsomes treated with 2-Fluoro-4-(8-fluoro-3-(quinolin-6-ylmethyl)imidazo[1,2-a]pyridin-6-yl)-N-methylbenzamide after 60 mins by UPLC/Q-TOF MS/MS analysis; type: ADME, Macaca mulatta; details: rhesus monkey, 1 h
# Liver microsome [35] = assay: Drug formation in beagle dog liver microsomes treated with 2-Fluoro-4-(8-fluoro-3-(quinolin-6-ylmethyl)imidazo[1,2-a]pyridin-6-yl)-N-methylbenzamide after 60 mins by UPLC/Q-TOF MS/MS analysis; type: ADME, Canis lupus familiaris; details: 1 h
# Chain of Hepatocyte growth factor receptor (Homo sapiens) (P08581 whole entry): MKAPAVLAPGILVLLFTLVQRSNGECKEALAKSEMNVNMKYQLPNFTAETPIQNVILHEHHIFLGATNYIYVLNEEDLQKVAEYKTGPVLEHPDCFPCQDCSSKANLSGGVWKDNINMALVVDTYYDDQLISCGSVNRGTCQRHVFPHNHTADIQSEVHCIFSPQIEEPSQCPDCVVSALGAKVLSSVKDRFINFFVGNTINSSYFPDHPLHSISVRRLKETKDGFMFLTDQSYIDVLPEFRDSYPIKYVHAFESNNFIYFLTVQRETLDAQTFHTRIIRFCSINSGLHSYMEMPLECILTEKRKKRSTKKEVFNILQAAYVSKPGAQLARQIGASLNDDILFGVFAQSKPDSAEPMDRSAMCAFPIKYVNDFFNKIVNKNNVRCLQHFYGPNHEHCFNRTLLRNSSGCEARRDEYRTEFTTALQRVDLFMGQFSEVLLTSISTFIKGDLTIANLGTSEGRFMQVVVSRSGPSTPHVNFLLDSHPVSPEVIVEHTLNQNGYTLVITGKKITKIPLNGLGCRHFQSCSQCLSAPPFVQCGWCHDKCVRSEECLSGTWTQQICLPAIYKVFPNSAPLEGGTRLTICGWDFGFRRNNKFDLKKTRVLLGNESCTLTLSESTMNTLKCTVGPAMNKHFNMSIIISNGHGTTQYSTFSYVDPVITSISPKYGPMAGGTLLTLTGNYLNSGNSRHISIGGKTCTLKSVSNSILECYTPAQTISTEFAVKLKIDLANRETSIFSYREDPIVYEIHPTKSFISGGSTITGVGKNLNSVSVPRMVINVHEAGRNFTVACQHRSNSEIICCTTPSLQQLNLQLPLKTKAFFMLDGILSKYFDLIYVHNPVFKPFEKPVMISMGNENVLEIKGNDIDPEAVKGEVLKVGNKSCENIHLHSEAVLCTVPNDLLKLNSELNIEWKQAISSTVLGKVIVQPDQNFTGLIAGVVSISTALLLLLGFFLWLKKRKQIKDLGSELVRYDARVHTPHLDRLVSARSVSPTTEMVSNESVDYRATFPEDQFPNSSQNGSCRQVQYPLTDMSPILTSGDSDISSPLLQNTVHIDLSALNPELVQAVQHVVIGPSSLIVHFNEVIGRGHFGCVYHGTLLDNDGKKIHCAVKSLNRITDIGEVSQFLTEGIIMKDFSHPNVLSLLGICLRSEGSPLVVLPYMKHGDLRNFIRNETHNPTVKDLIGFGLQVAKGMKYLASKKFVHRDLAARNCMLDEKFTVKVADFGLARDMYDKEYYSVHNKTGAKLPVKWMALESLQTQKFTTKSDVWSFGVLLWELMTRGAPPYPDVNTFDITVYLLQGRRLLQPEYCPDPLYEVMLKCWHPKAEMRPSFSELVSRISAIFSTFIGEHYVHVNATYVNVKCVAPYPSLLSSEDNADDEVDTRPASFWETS
# Chain of Tyrosine-protein kinase Mer (Q12866 whole entry): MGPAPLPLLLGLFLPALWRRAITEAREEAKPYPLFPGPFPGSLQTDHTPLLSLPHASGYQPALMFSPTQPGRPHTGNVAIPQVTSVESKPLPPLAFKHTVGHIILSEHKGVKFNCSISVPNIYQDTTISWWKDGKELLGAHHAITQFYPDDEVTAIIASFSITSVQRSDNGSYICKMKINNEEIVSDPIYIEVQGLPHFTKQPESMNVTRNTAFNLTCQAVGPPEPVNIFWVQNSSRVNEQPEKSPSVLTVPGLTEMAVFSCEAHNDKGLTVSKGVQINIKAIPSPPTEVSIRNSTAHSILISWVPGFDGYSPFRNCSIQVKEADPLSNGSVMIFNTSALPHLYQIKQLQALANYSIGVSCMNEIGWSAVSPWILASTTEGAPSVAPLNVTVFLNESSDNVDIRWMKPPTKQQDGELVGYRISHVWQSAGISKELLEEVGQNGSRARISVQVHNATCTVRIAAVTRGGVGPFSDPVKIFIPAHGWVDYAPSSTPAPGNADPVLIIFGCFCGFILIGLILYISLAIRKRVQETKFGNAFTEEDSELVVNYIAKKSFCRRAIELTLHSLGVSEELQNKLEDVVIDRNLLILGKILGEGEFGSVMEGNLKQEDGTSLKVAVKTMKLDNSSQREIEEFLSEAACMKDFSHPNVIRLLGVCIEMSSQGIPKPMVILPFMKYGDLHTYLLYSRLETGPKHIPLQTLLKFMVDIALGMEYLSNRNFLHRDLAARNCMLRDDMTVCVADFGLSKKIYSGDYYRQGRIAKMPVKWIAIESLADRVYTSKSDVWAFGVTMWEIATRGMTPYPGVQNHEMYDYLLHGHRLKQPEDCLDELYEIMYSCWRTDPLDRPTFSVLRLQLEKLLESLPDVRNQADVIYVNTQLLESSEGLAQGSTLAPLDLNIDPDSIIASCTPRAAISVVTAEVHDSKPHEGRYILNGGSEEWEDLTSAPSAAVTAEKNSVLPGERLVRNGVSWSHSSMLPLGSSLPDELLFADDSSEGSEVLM
# Chain of Voltage-gated inwardly rectifying potassium channel KCNH2 (Q12809 whole entry): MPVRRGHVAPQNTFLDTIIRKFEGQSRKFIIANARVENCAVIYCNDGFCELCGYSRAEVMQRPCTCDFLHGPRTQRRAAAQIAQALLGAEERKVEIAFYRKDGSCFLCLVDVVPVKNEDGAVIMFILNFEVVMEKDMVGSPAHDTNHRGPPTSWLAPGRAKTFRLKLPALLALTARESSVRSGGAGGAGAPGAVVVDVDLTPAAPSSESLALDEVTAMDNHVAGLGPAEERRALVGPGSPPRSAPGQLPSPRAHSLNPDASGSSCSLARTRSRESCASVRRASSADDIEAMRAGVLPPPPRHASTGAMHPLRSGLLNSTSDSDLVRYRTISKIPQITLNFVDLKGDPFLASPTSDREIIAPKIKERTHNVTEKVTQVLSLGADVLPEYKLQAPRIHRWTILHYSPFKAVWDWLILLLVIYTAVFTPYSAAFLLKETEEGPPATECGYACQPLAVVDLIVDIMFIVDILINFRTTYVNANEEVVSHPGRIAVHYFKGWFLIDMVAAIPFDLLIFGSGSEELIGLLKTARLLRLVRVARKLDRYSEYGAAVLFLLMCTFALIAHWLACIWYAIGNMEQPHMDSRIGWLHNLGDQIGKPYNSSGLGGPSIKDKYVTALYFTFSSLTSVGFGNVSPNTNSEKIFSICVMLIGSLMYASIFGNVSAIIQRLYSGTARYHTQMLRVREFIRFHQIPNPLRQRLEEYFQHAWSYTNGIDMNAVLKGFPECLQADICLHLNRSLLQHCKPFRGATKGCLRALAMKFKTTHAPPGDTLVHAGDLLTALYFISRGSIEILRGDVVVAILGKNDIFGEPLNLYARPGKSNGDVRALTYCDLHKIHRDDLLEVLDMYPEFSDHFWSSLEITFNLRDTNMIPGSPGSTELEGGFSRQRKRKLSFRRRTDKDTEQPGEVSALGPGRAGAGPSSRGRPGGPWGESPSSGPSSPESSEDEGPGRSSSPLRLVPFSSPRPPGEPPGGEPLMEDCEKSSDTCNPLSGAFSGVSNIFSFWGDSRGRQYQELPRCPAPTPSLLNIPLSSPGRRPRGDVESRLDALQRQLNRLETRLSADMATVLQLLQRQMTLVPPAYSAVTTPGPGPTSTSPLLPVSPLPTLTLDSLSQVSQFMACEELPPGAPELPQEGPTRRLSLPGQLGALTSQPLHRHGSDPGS
# Chain of Tyrosine-protein kinase receptor UFO (P30530 whole entry): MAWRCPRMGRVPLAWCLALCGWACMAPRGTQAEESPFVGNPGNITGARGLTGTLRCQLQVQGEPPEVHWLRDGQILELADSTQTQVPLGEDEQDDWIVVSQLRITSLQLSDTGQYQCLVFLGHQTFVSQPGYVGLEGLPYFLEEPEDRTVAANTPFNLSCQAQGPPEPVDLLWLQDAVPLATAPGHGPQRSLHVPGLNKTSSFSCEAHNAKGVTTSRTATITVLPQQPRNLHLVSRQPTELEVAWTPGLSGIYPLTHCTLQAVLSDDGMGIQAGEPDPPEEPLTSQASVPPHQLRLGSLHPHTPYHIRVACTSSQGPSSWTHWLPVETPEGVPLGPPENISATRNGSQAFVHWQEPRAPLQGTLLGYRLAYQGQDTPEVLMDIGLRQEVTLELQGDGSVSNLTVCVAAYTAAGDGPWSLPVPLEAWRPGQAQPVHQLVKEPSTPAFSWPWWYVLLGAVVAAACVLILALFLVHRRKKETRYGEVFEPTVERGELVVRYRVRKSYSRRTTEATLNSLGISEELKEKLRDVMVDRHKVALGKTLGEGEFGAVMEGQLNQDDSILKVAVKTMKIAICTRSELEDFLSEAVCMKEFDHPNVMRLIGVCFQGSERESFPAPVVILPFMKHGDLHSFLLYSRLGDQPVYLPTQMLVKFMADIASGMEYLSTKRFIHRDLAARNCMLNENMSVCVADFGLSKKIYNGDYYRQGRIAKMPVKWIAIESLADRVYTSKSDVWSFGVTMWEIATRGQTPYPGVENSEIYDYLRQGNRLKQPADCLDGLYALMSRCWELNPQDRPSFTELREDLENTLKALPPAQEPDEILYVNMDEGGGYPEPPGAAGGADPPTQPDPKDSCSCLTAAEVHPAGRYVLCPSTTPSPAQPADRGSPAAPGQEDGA
smiles,measurement,setting,value
Fc1cc(-c2cnn(C3CCNCC3)c2)cn2c(Cc3ccc4ncccc4c3)cnc12,IC50,[1],1.46 µM
O=C(NCc1ccccn1)c1ccc(-c2cc(F)c3ncc(Cc4ccc5ncccc5c4)n3c2)cc1F,IC50,[1],5.55 µM
N#Cc1ccc(-c2cc(F)c3ncc(Cc4ccc5ncccc5c4)n3c2)cn1,IC50,[1],0.189 µM
CNC(=O)c1ccc(-c2cc(F)c3ncc(Cc4ccc5ncccc5c4)n3c2)cc1F,Drug metabolism,Liver microsome [2],metabolite_notdetected
same,Drug metabolism,Liver microsome [3],metabolite_detected
same,Drug metabolism,Liver microsome [4],metabolite_detected
same,Drug metabolism,[5],metabolite_detected
same,Drug metabolism,Liver microsome [6],metabolite_notdetected
same,IC50,[7],93.6 µM
same,TGI,EBC-1 [8],Dose-dependent effect
same,inhibition in vivo at 100 mg/kg,[9],75%
same,inhibition in vivo at 50 mg/kg,[10],62.9%
same,Activity,Mus musculus,Non-toxic
same,IC50,[11],> 50 µM
same,IC50,MGC-803,> 50 µM
same,IC50,[12],> 50 µM
same,IC50,[13],> 50 µM
same,IC50,[14],> 50 µM
same,IC50,[15],> 50 µM
same,IC50,[16],> 50 µM
same,IC50,[17],> 50 µM
same,IC50,HT-29,> 50 µM
same,IC50,AGS,> 50 µM
same,IC50,[18],> 50 µM
same,IC50,SNU1,> 50 µM
same,IC50,A549,> 50 µM
same,IC50,[1],0.045 µM
same,IC50,[19],> 10 µM
same,IC50,[20],> 10 µM
same,IC50,[21],> 10 µM
same,IC50,[22],0.0909 µM
same,IC50,[23],0.0702 µM
same,IC50,BaF3,0.203 µM
same,Activity,EBC-1 [24],Active
same,Activity,EBC-1 [25],81.84%
same,inhibition,NCI-H441 [26],Active
same,inhibition,NCI-H441 [27],Active
same,inhibition,MDCK,Dose-dependent effect
same,half-life,[28],1.17 h
same,bioavailability,[29],29.4%
same,Drug metabolism,[30],metabolite_detected
same,IC50,NCI-H520,> 50 µM
same,IC50,NCI-H1975,> 50 µM
same,IC50,NCI-H1650,> 50 µM
same,IC50,NCI-H1299,> 50 µM
same,IC50,NCI-H596,> 50 µM
same,IC50,NCI-H226,> 50 µM
same,IC50,NCI-H292,> 50 µM
same,IC50,NCI-H23,> 50 µM
same,IC50,NCI-H358,> 50 µM
same,IC50,NCI-H661,> 50 µM
Cn1cc(-c2cc(C(F)(F)F)c3ncc(Cc4ccc5ncccc5c4)n3c2)cn1,inhibition,[31],9.6%
O=C(NC1CCCNC1)c1ccc(-c2cc(F)c3ncc(Cc4ccc5ncccc5c4)n3c2)cc1F (stereo not drawn),IC50,[1],0.138 µM
CN1CCN(C(=O)c2ccc(-c3cc(F)c4ncc(Cc5ccc6ncccc6c5)n4c3)cc2F)CC1,IC50,[1],0.869 µM
Cn1cc(-c2cn3c(Cc4ccc5ncccc5c4)cnc3cc2C#N)cn1,inhibition,[32],33.3%
CNC(=O)c1cc(-c2cc(F)c3ncc(Cc4ccc5ncccc5c4)n3c2)ccc1F,IC50,[1],0.246 µM
COc1ccc(-c2cc(F)c3ncc(Cc4ccc5ncccc5c4)n3c2)cc1F,IC50,[1],0.407 µM
CNC(=O)c1cccc(-c2cc(F)c3ncc(Cc4ccc5ncccc5c4)n3c2)c1,IC50,[1],0.4 µM
O=C(NCC1CCCCN1)c1ccc(-c2cc(F)c3ncc(Cc4ccc5ncccc5c4)n3c2)cc1F (stereo not drawn),IC50,[1],0.277 µM
Fc1cc(-c2ccsc2)cn2c(Cc3ccc4ncccc4c3)cnc12,IC50,[1],0.444 µM
Fc1cc(-c2ccc(N3CCOCC3)nc2)cn2c(Cc3ccc4ncccc4c3)cnc12,IC50,[1],0.225 µM
CNC(=O)c1ccc(-c2cc(F)c3ncc(C(O)c4ccc5ncccc5c4)n3c2)cc1F (stereo not drawn),Drug metabolism,Liver,metabolite_detected
same,Drug metabolism,Liver microsome [33],metabolite_detected
same,Drug metabolism,[34],metabolite_detected
same,Drug metabolism,Liver microsome [35],metabolite_detected
same,IC50,[1],3.02 µM
O=C(NCc1cc(F)cc(F)c1)c1ccc(-c2cc(F)c3ncc(Cc4ccc5ncccc5c4)n3c2)cc1F,IC50,[1],0.0536 µM
Cn1cc(-c2cc(C#N)c3ncc(Cc4ccc5ncccc5c4)n3c2)cn1,inhibition,[32],34.5%
